Earlier results in patent publication US20210322342A1, “ENDOXIFEN FOR THE TREATMENT OF BIPOLAR I DISORDER” (Jina Pharmaceuticals, Inc., priority 2020, published 2021).

Key:
PKC = settings: compared to tamoxifen
[1] = for plasma levels of free thyroxin (fT4): use of antipsychotics

Structure (SMILES) | potency in inhibiting the PKC activity (PKC) | plasma levels of free thyroxin (fT4) [1] | haematological adverse effects ([1]; in vivo)
CC/C(=C(\c1ccc(O)cc1)c1ccc(OCCNC)cc1)c1ccccc1.O=C(O)CC(O)(CC(=O)O)C(=O)O [Endoxifen, (Z)—1-(4-Hydroxyphenyl)-1-{4-[2-(monomethylamino)ethoxy]phenyl}—2—pheny 1-1-butene citrate] | four-fold higher potency |  | 
OCCOCCN1CCN(C2=Nc3ccccc3Sc3ccccc32)CC1 [quetiapine] |  | significantly lower | 
Cc1cc2c(s1)Nc1ccccc1N=C2N1CCN(C)CC1 [olanzapine] |  | significantly lower | causes neutropenia and thrombocytopenia
